The text below walks through data of patent publication US11098063B2, “Diazabicyclic substituted imidazopyrimidines and their use for the treatment of breathing disorders” (Bayer Aktiengesellschaft, priority 2017, dated 2021).

SMILES strings stand for the structures.

The target in one assay is human TASK-1 (Homo sapiens (Human), UniProt O14649). The experiment in a line: Inhibition of recombinant TASK-1 in stably transfected CHO cells (voltage-sensitive dye, KCl depolarization). In kind it is cell-based. As to conditions: depolarization by 40 mM potassium chloride. As for the experimental part: (§1) B-2. Inhibition of Recombinant TASK-1 and TASK-3 In Vitro
Sequence of human TASK-1 (O14649 whole entry): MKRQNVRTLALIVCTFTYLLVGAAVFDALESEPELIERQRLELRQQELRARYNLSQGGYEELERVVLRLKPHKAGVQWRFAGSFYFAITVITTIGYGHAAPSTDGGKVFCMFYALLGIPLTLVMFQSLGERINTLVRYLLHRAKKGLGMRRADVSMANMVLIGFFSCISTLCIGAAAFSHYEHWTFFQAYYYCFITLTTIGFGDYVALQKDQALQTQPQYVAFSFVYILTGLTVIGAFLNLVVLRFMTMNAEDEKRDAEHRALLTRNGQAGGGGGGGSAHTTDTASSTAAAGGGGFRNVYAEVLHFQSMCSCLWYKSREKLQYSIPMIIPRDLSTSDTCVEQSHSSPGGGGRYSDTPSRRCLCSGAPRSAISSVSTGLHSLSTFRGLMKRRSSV
(§2) The investigations on the inhibition of the recombinant TASK-1 and TASK-3 channels were conducted using stably transfected CHO cells. The compounds according to the invention were tested in this case by application of 40 mM potassium chloride in the presence of a voltage-sensitive dye according to the method described in detail in the following references [Whiteaker et al., Validation of FLIPR membrane potential dye for high-throughput screening of potassium channel modulators, J. Biomol. Screen. 6 (5), 305-312 (2001); Molecular Devices FLIPR Application Note: Measuring membrane potential using the FLIPR® membrane potential assay kit on Fluorometric Imaging Plate Reader (FLIPR®) systems, http://www.moleculardevices.com/reagents-supplies/assay-kits/ion-channels/flipr-membrane-potential-assay-kits]. The activity of the test substances was determined as their ability to inhibit a depolarization induced in the recombinant cells by 40 mM potassium chloride. The concentration which can block half of this depolarization is referred to as IC50.

The next assay deals with human TASK-3 (Homo sapiens (Human), UniProt Q9NPC2). The experiment in a line: Inhibition of recombinant TASK-3 in stably transfected CHO cells (voltage-sensitive dye, KCl depolarization). Format: cell-based. As to conditions: depolarization by 40 mM potassium chloride. As for the experimental part:
as §1, §2

Sequence of human TASK-3 (Q9NPC2 whole entry): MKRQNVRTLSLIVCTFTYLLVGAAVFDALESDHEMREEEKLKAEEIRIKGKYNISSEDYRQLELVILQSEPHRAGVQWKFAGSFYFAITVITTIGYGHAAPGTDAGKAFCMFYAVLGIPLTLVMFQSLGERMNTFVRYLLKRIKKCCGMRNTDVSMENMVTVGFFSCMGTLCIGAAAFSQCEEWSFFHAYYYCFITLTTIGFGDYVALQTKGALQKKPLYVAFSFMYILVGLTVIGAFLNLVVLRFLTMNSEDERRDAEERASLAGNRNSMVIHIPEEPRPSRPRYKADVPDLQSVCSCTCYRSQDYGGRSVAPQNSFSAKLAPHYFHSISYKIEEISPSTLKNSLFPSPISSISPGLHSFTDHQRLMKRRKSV

Usually IC50 stands for the concentration that gives 50% inhibition. Take `Cc1nc(C)c(C(=O)N2C3CCC2CN(Cc2c(-c4ccc(Cl)cc4)nc4ncccn24)C3)o1` [Example 50]: the concentration for half-maximal inhibition (IC50) on human TASK-1 was found to be 3.3 µM; on human TASK-3, 0.43 µM.

As for `O=C(Nc1cccc(Cl)c1)N1C2CCC1CN(Cc1c(-c3ccc(Cl)cc3)nc3ncccn13)C2` [Example 89, N-(3-chlorophenyl)-3-{[2-(4-chlorophenyl)imidazo[1,2-a]pyrimidin-3-yl]methyl}-3,8-diazabicyclo[3.2.1]octane-8-carboxamide], the half-inhibitory concentration (IC50) on human TASK-1 was 30 µM; on human TASK-3, 0.85 µM.

Turning to `CC(C)CNC(=O)N1C2CCC1CN(Cc1c(-c3ccc(Cl)cc3)nc3ncccn13)C2` [Example 101, 3-{[2-(4-Chlorophenyl)imidazo[1,2-a]pyrimidin-3-yl]methyl}-N-isobutyl-3,8-diazabicyclo[3.2.1]octane-8-carboxamide], the 50% inhibitory concentration (IC50) on human TASK-1 worked out at 19 µM; at human TASK-3, 0.51 µM.

As for `O=C(Nc1ccc(SC(F)(F)F)cc1)N1C2CCC1CN(Cc1c(-c3ccc(Cl)cc3)nc3ncccn13)C2` [Example 103, 3-{[2-(4-chlorophenyl)imidazo[1,2-a]pyrimidin-3-yl]methyl}-N-{4-[(trifluoromethyl)sulfanyl]phenyl}-3,8-diazabicyclo[3.2.1]octane-8-carboxamide], the results for the concentration for half-maximal inhibition (IC50) at human TASK-1 and on human TASK-3 were 30 µM and 0.69 µM, respectively.

Regarding `COc1cccc(C(=O)N2C3COCC2CN(Cc2c(-c4ccc(Cl)cc4)nc4ncccn24)C3)c1` [Example 31], the values for the half-maximal inhibitory concentration (IC50) on human TASK-1 and at human TASK-3 were 7.1 µM and 0.14 µM, respectively.

`CSc1cccc(C(=O)N2C3COCC2CN(Cc2c(-c4ccc(Cl)cc4)nc4ncccn24)C3)n1` [Example 16, (7-{[2-(4-Chlorophenyl)imidazo[1,2-a]pyrimidin-3-yl]methyl}-3-oxa-7,9-diazabicyclo[3.3.1]non-9-yl)[6-(methylsulfanyl)pyridin-2-yl]methanone]: the half-inhibitory concentration (IC50) on human TASK-1 was 0.67 µM; on human TASK-3, 0.012 µM.

Consider `CCc1cccc(C)c1NC(=O)N1C2CCC1CN(Cc1c(-c3ccc(Cl)cc3)nc3ncccn13)C2` [Example 98, 3-{[2-(4-chlorophenyl)imidazo[1,2-a]pyrimidin-3-yl]methyl}-N-(2-ethyl-6-methylphenyl)-3,8-diazabicyclo[3.2.1]octane-8-carboxamide], for which the concentration for half-maximal inhibition (IC50) on human TASK-1 worked out at 9 µM; on human TASK-3, 0.16 µM.

Turning to `COc1ccc(F)c(C(=O)N2C3CCC2CN(Cc2c(-c4ccc(Br)cc4)nc4ncccn24)C3)n1` [Example 82], the concentration for half-maximal inhibition (IC50) at human TASK-1 came to 0.67 µM; at human TASK-3, 0.037 µM.

Consider `O=C(c1csc(C(F)(F)F)n1)N1C2CCC1CN(Cc1c(-c3ccc(Cl)cc3)nc3ncccn13)C2` [Example 58], for which the IC50 was determined as 1.6 µM at human TASK-1 and 0.017 µM on human TASK-3.

With `O=C(OC1CCCC1)N1C2CCC1CN(Cc1c(-c3ccc(Cl)cc3)nc3ncccn13)C2` [Example 125, cyclopentyl 3-{[2-(4-chlorophenyl)imidazo[1,2-a]pyrimidin-3-yl]methyl}-3,8-diazabicyclo[3.2.1]octane-8-carboxylate], the results for the IC50 on human TASK-1 and at human TASK-3 were 0.23 µM and 0.027 µM, respectively.

As for `O=C(OC1CCCCC1)N1C2CCC1CN(Cc1c(-c3ccc(Cl)cc3)nc3ncccn13)C2` [Example 128, cyclohexyl 3-{[2-(4-chlorophenyl)imidazo[1,2-a]pyrimidin-3-yl]methyl}-3,8-diazabicyclo[3.2.1]octane-8-carboxylate], the IC50 on human TASK-1 turned out to be 2 µM; on human TASK-3, 0.11 µM.

For the compound `COc1ccc(F)c(C(=O)N2CC3CCC2CN3Cc2c(-c3ccc(C(C)C)cc3)nc3ncccn23)n1` (stereo not drawn) [Example 71], the half-maximal inhibitory concentration (IC50) came out at 14 µM on human TASK-1 and 0.11 µM at human TASK-3.

On to `O=C(N1CCCC1)N1C2CCC1CN(Cc1c(-c3ccc(Cl)cc3)nc3ncccn13)C2` [Example 113, (3-{[2-(4-chlorophenyl)imidazo[1,2-a]pyrimidin-3-yl]methyl}-3,8-diazabicyclo[3.2.1]oct-8-yl)(pyrrolidin-1-yl)methanone], for which the values for the IC50 at human TASK-1 and on human TASK-3 were 1.1 µM and 0.062 µM, respectively.

Regarding `O=C(c1coc(C2CC2)n1)N1C2CCC1CN(Cc1c(-c3ccc(Cl)cc3)nc3ncccn13)C2` [Example 47], the IC50 on human TASK-1 stood at 2.8 µM; on human TASK-3, 0.11 µM.

Turning to `COc1ccc(F)c(C(=O)N2C3CCC2CN(Cc2c(-c4ccc(C5CC5)cc4)nc4ncccn24)C3)n1` [Example 135, (3-{[2-(4-cyclopropylphenyl)imidazo[1,2a]pyrimidin-3-yl]methyl}-3,8-diazabicyclo[3.2.1]octan-8-yl)(3-fluoro-6methoxypyridin-2-yl)methanone], the IC50 on human TASK-1 came out at 0.42 µM; on human TASK-3, 0.034 µM.

`CC(C)c1ccc(-c2nc3ncccn3c2CN2CC3CCC2CN3C(=O)c2cccc(OC(F)F)n2)cc1` (stereo not drawn) [Example 76]: the concentration for half-maximal inhibition (IC50) on human TASK-1 was 13 µM; on human TASK-3, 0.056 µM.

On to `Cc1sc(C(=O)N2C3CCC2CN(Cc2c(-c4ccc(Cl)cc4)nc4ncccn24)C3)nc1Br` [Example 52], for which the IC50 on human TASK-1 turned out to be 1.3 µM; at human TASK-3 it was 0.052 µM.

Regarding `O=C(C1CCCC1)N1CC2CCC1CN2Cc1c(-c2ccc(Cl)cc2)nc2ncccn12` (stereo not drawn) [Example 37], the values for the IC50 on human TASK-1 and at human TASK-3 were 1.5 µM and 0.14 µM, respectively.

Turning to `CN(C(=O)N1C2CCC1CN(Cc1c(-c3ccc(Cl)cc3)nc3ncccn13)C2)c1ccccc1` [Example 108, 3-{[2-(4-chlorophenyl)imidazo[1,2-a]pyrimidin-3-yl]methyl}-N-methyl-N-phenyl-3,8-diazabicyclo[3.2.1]octane-8-carboxamide], the IC50 on human TASK-1 came out at 7 µM; on human TASK-3, 0.09 µM.

For `COc1ccc(F)c(C(=O)N2C3COCC2CN(Cc2c(-c4ccc(Cl)cc4)nc4ncccn24)C3)n1` [Example 15, (7-{[2-(4-Chlorophenyl)imidazo[1,2-a]pyrimidin-3-yl]methyl}-3-oxa-7,9-diazabicyclo[3.3.1]non-9-yl)(3-fluoro-6-methoxypyridin-2-yl)methanone], the IC50 on human TASK-1 was 1.1 µM; on human TASK-3 it was 0.019 µM.

In the case of `O=C(c1ccccc1F)N1C2COCC1CN(Cc1c(-c3ccc(Cl)cc3)nc3ncccn13)C2` [Example 30], the IC50 on human TASK-1 amounted to 3.5 µM; on human TASK-3 it was 0.085 µM.

As to `CC(C)c1ccc(-c2nc3ncccn3c2CN2CC3CCC2CN3C(=O)c2cccc(OC(F)F)n2)cc1` (stereo not drawn) [Example 75], the IC50 on human TASK-1 was 3.8 µM; at human TASK-3, 0.051 µM.

Take `O=C(NC1CCCCC1)N1C2CCC1CN(Cc1c(-c3ccc(Cl)cc3)nc3ncccn13)C2` [Example 100, 3-{[2-(4-Chlorophenyl)imidazo[1,2-a]pyrimidin-3-yl]methyl}-N-cyclohexyl-3,8-diazabicyclo[3.2.1]octane-8-carboxamide]: the half-inhibitory concentration (IC50) at human TASK-1 came out at 19 µM; on human TASK-3 it was 0.63 µM.

Consider `O=C(C1CCCC1)N1C2CCC1CN(Cc1c(-c3ccc(Cl)cc3)nc3ncccn13)C2` [Example 34], for which the concentration for half-maximal inhibition (IC50) on human TASK-1 was determined as 0.076 µM; at human TASK-3, 0.029 µM.

With `O=C(N1CCOCC1)N1C2CCC1CN(Cc1c(-c3ccc(Cl)cc3)nc3ncccn13)C2` [Example 110, (3-{[2-(4-chlorophenyl)imidazo[1,2-a]pyrimidin-3-yl]methyl}-3,8-diazabicyclo[3.2.1]oct-8-yl)(morpholin-4-yl)methanone], the 50% inhibitory concentration (IC50) was 13 µM on human TASK-1 and 0.23 µM on human TASK-3.

As to `CC(C)c1ocnc1C(=O)N1C2CCC1CN(Cc1c(-c3ccc(Cl)cc3)nc3ncccn13)C2` [Example 49], the IC50 stood at 0.26 µM on human TASK-1 and 0.012 µM at human TASK-3.

For `O=C(c1ccccc1F)N1CC2CCC1CN2Cc1c(-c2ccc(Cl)cc2)nc2ncccn12` (stereo not drawn) [Example 39], the IC50 on human TASK-1 stood at 1.4 µM; at human TASK-3, 0.16 µM.

As to `COc1cccc(C(=O)N2C3CCC2CN(Cc2c(-c4ccc(Cl)cc4)nc4ncccn24)C3)c1` [Example 36], the 50% inhibitory concentration (IC50) came to 0.31 µM on human TASK-1 and 0.08 µM on human TASK-3.

Regarding `Cc1ocnc1C(=O)N1C2CCC1CN(Cc1c(-c3ccc(Cl)cc3)nc3ncccn13)C2` [Example 48], the concentration for half-maximal inhibition (IC50) at human TASK-1 is 0.4 µM; at human TASK-3 it was 0.023 µM.

Take `COc1ccc(Cl)c(C(=O)N2C3COCC2CN(Cc2c(-c4ccc(Cl)cc4)nc4ncccn24)C3)n1` [Example 14, (3-Chloro-6-methoxypyridin-2-yl)(7-{[2-(4-chlorophenyl)imidazo[1,2-a]pyrimidin-3-yl]methyl}-3-oxa-7,9-diazabicyclo[3.3.1]non-9-yl)methanone]: the IC50 was determined as 7.6 µM at human TASK-1 and 0.17 µM at human TASK-3.

Turning to `O=C(C1CCCC1)N1C2COCC1CN(Cc1c(-c3ccc(Cl)cc3)nc3ncccn13)C2` [Example 17, (7-{[2-(4-Chlorophenyl)imidazo[1,2-a]pyrimidin-3-yl]methyl}-3-oxa-7,9-diazabicyclo[3.3.1]non-9-yl)(cyclopentyl)methanone], the figures for the IC50 at human TASK-1 and at human TASK-3 were 1.2 µM and 0.033 µM, respectively.

As for `COC(=O)N1C2CCC1CN(Cc1c(-c3ccc(Cl)cc3)nc3ncccn13)C2` [Example 123, methyl 3-{[2-(4-chlorophenyl)imidazo[1,2-a]pyrimidin-3-yl]methyl}-3,8-diazabicyclo[3.2.1]octane-8-carboxylate], the IC50 at human TASK-1 turned out to be 14 µM; on human TASK-3 it was 0.23 µM.

Regarding `O=C(N1CCSCC1)N1C2CCC1CN(Cc1c(-c3ccc(Cl)cc3)nc3ncccn13)C2` [Example 122, (3-{[2-(4-Chlorophenyl)imidazo[1,2-a]pyrimidin-3-yl]methyl}-3,8-diazabicyclo[3.2.1]oct-8-yl)(thiomorpholin-4-yl)methanone], the IC50 on human TASK-1 is 5 µM; at human TASK-3 it was 0.12 µM.
